From patent US10479780B2, “Aminopyrazole derivatives” (Chugai Seiyaku Kabushiki Kaisha, priority 2015, dated 2019)
Like-named read-outs stand apart in the source and are kept apart here.

Tests used:
Assay type in all cases: biochemical
human Src enzyme = biological target: T1, human Src enzyme (Homo sapiens, UniProt P12931); assay: Src enzyme inhibitory activity (time-resolved fluorometry, biotinylated peptide phosphorylation); details: read-out: SRC_IC50
T1 construct: purchased Carna Biosciences, Inc. 08-173
T1 sequence (P12931 whole entry): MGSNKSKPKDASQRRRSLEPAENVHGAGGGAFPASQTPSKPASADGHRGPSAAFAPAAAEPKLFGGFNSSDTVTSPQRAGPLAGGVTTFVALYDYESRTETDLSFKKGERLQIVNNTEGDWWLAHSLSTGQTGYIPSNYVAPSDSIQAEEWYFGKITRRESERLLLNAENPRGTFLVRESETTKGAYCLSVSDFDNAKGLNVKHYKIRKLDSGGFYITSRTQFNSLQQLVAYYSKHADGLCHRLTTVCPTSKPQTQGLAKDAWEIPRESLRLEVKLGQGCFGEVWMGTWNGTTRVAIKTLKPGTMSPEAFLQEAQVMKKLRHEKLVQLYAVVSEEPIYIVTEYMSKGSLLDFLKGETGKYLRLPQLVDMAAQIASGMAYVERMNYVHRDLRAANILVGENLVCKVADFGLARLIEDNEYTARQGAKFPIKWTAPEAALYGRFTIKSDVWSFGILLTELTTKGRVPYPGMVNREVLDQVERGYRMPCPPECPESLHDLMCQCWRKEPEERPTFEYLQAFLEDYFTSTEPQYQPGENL
Summary of the method: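 Compounds were tested for blocking tyrosine phosphorylation of a biotinylated peptide substrate by recombinant human Src. Phosphorylated product was quantified by time-resolved fluorometry using europium cryptate and XL665 conjugates, and IC50 was calculated against the compound-free control.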

human Lck enzyme = biological target: T2, human Lck enzyme (Homo sapiens, UniProt P06239); assay: Lck enzyme inhibitory activity (time-resolved fluorometry, biotinylated peptide phosphorylation); details: read-out: LCK_IC50
T2 construct: purchased Carna Biosciences, Inc. 08-170
T2 sequence (P06239 whole entry): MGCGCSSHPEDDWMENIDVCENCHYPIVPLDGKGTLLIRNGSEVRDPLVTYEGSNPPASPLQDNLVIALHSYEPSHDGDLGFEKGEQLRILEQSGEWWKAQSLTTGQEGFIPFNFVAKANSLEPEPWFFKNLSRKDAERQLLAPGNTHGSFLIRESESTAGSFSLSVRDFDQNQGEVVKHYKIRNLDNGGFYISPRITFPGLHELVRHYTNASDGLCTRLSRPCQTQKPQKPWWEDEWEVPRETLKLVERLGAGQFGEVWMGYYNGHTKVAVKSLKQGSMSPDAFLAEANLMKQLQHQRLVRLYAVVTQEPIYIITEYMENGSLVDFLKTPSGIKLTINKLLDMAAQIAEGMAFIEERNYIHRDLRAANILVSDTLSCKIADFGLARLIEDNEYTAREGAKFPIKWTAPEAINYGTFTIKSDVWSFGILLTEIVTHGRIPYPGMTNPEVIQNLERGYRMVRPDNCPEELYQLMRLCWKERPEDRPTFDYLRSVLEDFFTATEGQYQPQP
Summary of the method: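 Readout pairs a europium cryptate-labelled anti-phosphotyrosine antibody with XL665-streptavidin, measured by time-resolved fluorescence. IC50 derived from percent inhibition against untreated controls.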

human Yes1 enzyme = biological target: T3, human Yes1 enzyme (Homo sapiens, UniProt P07947); assay: Yes1 enzyme inhibitory activity (time-resolved fluorometry, biotinylated peptide phosphorylation); details: read-out: YES_IC50
T3 construct: made in house
T3 sequence (P07947 whole entry): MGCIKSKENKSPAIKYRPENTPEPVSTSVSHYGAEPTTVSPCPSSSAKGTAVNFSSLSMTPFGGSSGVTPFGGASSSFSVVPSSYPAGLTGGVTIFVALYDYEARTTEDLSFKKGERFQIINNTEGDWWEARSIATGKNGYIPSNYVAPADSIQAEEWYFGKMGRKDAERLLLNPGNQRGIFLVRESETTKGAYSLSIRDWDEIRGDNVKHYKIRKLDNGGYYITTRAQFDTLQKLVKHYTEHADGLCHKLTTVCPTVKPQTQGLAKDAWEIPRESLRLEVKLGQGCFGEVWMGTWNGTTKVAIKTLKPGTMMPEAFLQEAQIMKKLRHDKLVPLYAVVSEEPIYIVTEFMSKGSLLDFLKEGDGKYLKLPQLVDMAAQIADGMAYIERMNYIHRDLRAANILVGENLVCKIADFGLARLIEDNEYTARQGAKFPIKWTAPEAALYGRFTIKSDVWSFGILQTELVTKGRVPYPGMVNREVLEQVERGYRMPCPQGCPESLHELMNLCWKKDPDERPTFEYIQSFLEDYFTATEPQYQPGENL
Summary of the method: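 Inhibition was expressed against a compound-free control to give IC50, using TR-FRET read-out (Eu-cryptate anti-pTyr antibody, streptavidin-XL665).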

[1] = biotinylated peptide phosphorylation

| IC50 (human Src enzyme) [nM] | IC50 (human Lck enzyme) [nM] | IC50 (human Yes1 enzyme) [nM] | IC50 (human Src enzyme; [1]) [nM] | IC50 (human Lck enzyme; [1]) [nM] | IC50 (human Yes1 enzyme; [1]) [nM] | SMILES |
| --- | --- | --- | --- | --- | --- | --- |
| 630 | 270 | 9.2 | – | – | – | Cc1cc(Oc2c(F)cccc2F)ncc1-n1ncc(C(=O)c2cc3cc(OCC(F)F)c(NS(=O)(=O)c4cccc(Cl)c4)cc3[nH]2)c1N [Example 5-1-383, N-[2-[5-amino-1-[6-(2,6-difluorophenoxy)-4-methylpyridin-3-yl]pyrazole-4-carbonyl]-5-(2,2-difluoroethoxy)-1H-indol-6-yl]-3-chlorobenzenesulfonamide] |
| 90 | 44 | 2.4 | – | – | – | Cc1cc(Oc2c(F)cccc2F)ncc1-n1ncc(C(=O)c2cc3cc(OCC(F)F)c(NS(=O)(=O)c4cccnc4)cc3[nH]2)c1N [Example 5-1-384, N-[2-[5-amino-1-[6-(2,6-difluorophenoxy)-4-methylpyridin-3-yl]pyrazole-4-carbonyl]-5-(2,2-difluoroethoxy)-1H-indol-6-yl]pyridine-3-sulfonamide] |
| 2400 | 390 | 3 | – | – | – | Cc1cc(-n2ncc(C(=O)c3cc4cc(OC5CCN(C6CCCC6)CC5)c(-c5ccccc5C(F)(F)F)cc4[nH]3)c2N)ccc1Oc1ccccc1F [Example 5-1-385, (5-amino-1-(4-(2-fluorophenoxy)-3-methylphenyl)-1H-pyrazol-4-yl)(5-((1-cyclopentylpiperidin-4-yl)oxy)-6-(2-(trifluoromethyl)phenyl)-1H-indol-2-yl)methanone] |
| 190 | 29 | 3.1 | – | – | – | Cc1cc(Oc2c(F)cccc2F)ncc1-n1ncc(C(=O)c2cc3cc(OC4CCN(C5CCCC5)CC4)c(-c4ccccc4C(F)(F)F)cc3[nH]2)c1N [Example 5-1-387, [5-amino-1-[6-(2,6-difluorophenoxy)-4-methylpyridin-3-yl]pyrazol-4-yl]-[5-(1-cyclopentylpiperidin-4-yl)oxy-6-[2-(trifluoromethyl)phenyl]-1H-indol-2-yl] methanone] |
| 220 | 47 | 4.2 | – | – | – | Cc1cc(Oc2c(F)cccc2F)ncc1-n1ncc(C(=O)c2cc3cc(OC4CCN(C5CS(=O)(=O)C5)CC4)c(-c4ccccc4C(F)(F)F)cc3[nH]2)c1N [Example 5-1-388, [5-amino-1-[6-(2,6-difluorophenoxy)-4-methylpyridin-3-yl]pyrazol-4-yl]-[5-[1-(1,1-dioxothietan-3-yl)piperidin-4-yl]oxy-6-[2-(trifluoromethyl)phenyl]-1H-indol-2-yl] methanone] |
| 24 | 18 | 1.4 | – | – | – | Cc1cc(Oc2ccccc2F)ccc1-n1ncc(C(=O)c2cc3cc(F)c(NS(=O)(=O)C4CCOCC4)cc3[nH]2)c1N [Example 5-1-389, N-[2-[5-amino-1-[4-(2-fluorophenoxy)-2-methylphenyl]pyrazole-4-carbonyl]-5-fluoro-1H-indol-6-yl]oxane-4-sulfonamide] |
| 44 | 25 | 1.9 | – | – | – | Cc1cc(Oc2ccccc2F)ccc1-n1ncc(C(=O)c2cc3cc(OC(F)F)c(NS(=O)(=O)C4CCOCC4)cc3[nH]2)c1N [Example 5-1-390, N-[2-[5-amino-1-[4-(2-fluorophenoxy)-2-methylphenyl]pyrazole-4-carbonyl]-5-(difluoromethoxy)-1H-indol-6-yl]oxane-4-sulfonamie] |
| 11 | 5.5 | 1.3 | – | – | – | Cc1cc2cc(C(=O)c3cnn(-c4ccc(Oc5ccccc5F)cc4C)c3N)[nH]c2cc1N1C(=O)NC2(CCN(C3COC3)CC2)C1=O [Example 5-1-391, 3-(2-(5-amino-1-(4-(2-fluorophenoxy)-2-methylphenyl)-1H-pyrazole-4-carbonyl)-5-methyl-1H-indol-6-yl)-8-(oxetan-3-yl)-1,3,8-triazaspiro[4.5]decane-2,4-dione] |
| 89 | 14 | 2.9 | – | – | – | Cc1cc2cc(C(=O)c3cnn(-c4ccc(Oc5ccccc5F)cc4C)c3N)[nH]c2cc1N1C(=O)NC2(CCN(Cc3ccccc3)CC2)C1=O [Example 5-1-392, 3-[2-[5-amino-1-[4-(2-fluorophenoxy)-2-methylphenyl]pyrazole-4-carbonyl]-5-methyl-1H-indol-6-yl]-8-benzyl-1,3,8-triazaspiro[4.5] decane-2,4-dione] |
| 9.8 | 4.6 | 1 | – | – | – | Cc1cc2cc(C(=O)c3cnn(-c4ccc(Oc5ccccc5F)cc4C)c3N)[nH]c2cc1N1C(=O)NC2(CCN(C3COC3)C2)C1=O (stereo not drawn) [Example 5-1-393, 3-[2-[5-amino-1-[4-(2-fluorophenoxy)-2-methylphenyl]pyrazole-4-carbonyl]-5-methyl-1H-indol-6-yl]-7-(oxetan-3-yl)-1,3,7-triazaspiro [4.4]nonane-2,4-dione] |
| 93 | 21 | 2.9 | – | – | – | Cc1cc2cc(C(=O)c3cnn(-c4ccc(Oc5ccccc5F)cc4C)c3N)[nH]c2cc1N1C(=O)NC2(CCN(Cc3ccccc3)C2)C1=O (stereo not drawn) [Example 5-1-394, 3-[2-[5-amino-1-[4-(2-fluorophenoxy)-2-methylphenyl]pyrazole-4-carbonyl]-5-methyl-1H-indol-6-yl]-7-benzyl-1,3,7-tnazaspiro[4.4] nonane-2,4-dione] |
| 210 | 66 | 4.8 | – | – | – | Cc1cc(Oc2c(F)cccc2F)ncc1-n1ncc(C(=O)c2cc3cc(C4CC4)c(NS(=O)(=O)C4CCOCC4)cc3[nH]2)c1N [Example 5-1-395, N-[2-[5-amino-1-[6-(2,6-difluorophenoxy)-4-methylpyridin-3-yl]pyrazole-4-carbonyl]-5-cyclopropyl-1H-indol-6-yl]oxane-4-sulfonamide] |
| 230 | 68 | 3.6 | – | – | – | Cc1cc(Oc2ccccc2F)ncc1-n1ncc(C(=O)c2cc3cc(C4CC4)c(NS(=O)(=O)C4CCOCC4)cc3[nH]2)c1N [Example 5-1-396, N-[2-[5-amino-1-[6-(2-fluorophenoxy)-4-methylpyridin-3-yl]pyrazole-4-carbonyl]-5-cyclopropyl-1H-indol-6-yl]oxane-4-sulfonamide] |
| 90 | 31 | 1.8 | – | – | – | Cc1cc(Oc2ccccc2F)ccc1-n1ncc(C(=O)c2cc3cc(C4CC4)c(NS(=O)(=O)C4CCOCC4)cc3[nH]2)c1N [Example 5-1-397, N-[2-[5-amino-1-[4-(2-fluorophenoxy)-2-methylphenyl]pyrazole-4-carbonyl]-5-cyclopropyl-1H-indol-6-yl]oxane-4-sulfonamide] |
| 95 | 20 | 2.4 | – | – | – | Cc1cc(Oc2c(F)cccc2F)ncc1-n1ncc(C(=O)c2cc3cc(F)c(N4CC(C)(C)NS4(=O)=O)cc3[nH]2)c1N [Example 5-1-398, [5-amino-1-[6-(2,6-difluorophenoxy)-4-methylpyridin-3-yl]pyrazol-4-yl]-[6-(4,4-dimethyl-1,1-dioxo-1,2,5-thiadiazolidin-2-yl)-5-fluoro-1H-indol-2-yl]methanone] |
| – | – | – | 250 | 53 | 5.7 | Cc1cc(Oc2c(F)cccc2F)ncc1-n1ncc(C(=O)c2cc3cc(F)c(N4CC5(CCCC5)NS4(=O)=O)cc3[nH]2)c1N [Example 5-1-399, [5-amino-1-[6-(2,6-difluorophenoxy)-4-methylpyridin-3-yl]pyrazol-4-yl]-[6-(2,2-dioxo-2λ6-thia-1,3-diazaspiro[4.4]nonan-3-yl)-5-fluoro-1H-indol-2-yl]methanone] |
| – | – | – | 76 | 14 | 2.1 | Cc1cc(Oc2c(F)cccc2F)ncc1-n1ncc(C(=O)c2cc3cc(F)c(N4CC5(CCOCC5)NS4(=O)=O)cc3[nH]2)c1N [Example 5-1-400, [5-amino-1-[6-(2,6-difluorophenoxy)-4-methylpyridin-3-yl]pyrazol-4-yl]-[6-(2,2-dioxo-8-oxa-2λ6-thia-13-diazaspiro[4.5]decan-3-yl)-5-fluoro-1H-indol-2-yl]methanone] |
| – | – | – | 140 | 41 | 2.5 | Cc1cc(Oc2ccccc2F)ncc1-n1ncc(C(=O)c2cc3cc(OC(F)F)c(NS(=O)(=O)C4CCOCC4)cc3[nH]2)c1N [Example 5-1-401, N-[2-[5-amino-1-[6-(2-fluorophenoxy)-4-methylpyridin-3-yl]pyrazole-4-carbonyl]-5-(difluoromethoxy)-1H-indol-6-yl]oxane-4-sulfonamide] |
| – | – | – | 63 | 8.2 | 1.8 | Cc1cc(Oc2ccccc2F)ncc1-n1ncc(C(=O)c2cc3cc(OC(F)F)c(N4C(=O)NC(C)(C)C4=O)cc3[nH]2)c1N [Example 5-1-402, 3-[2-[5-amino-1-[6-(2-fluorophenoxy)-4-methylpyridin-3-yl]pyrazole-4-carbonyl]-5-(difluoromethoxy)-1H-indol-6-yl]-5,5-dimethylimidazolidine-2,4-dione] |
| – | – | – | 88 | 8.6 | 0.98 | Cc1cc(Oc2ccccc2F)ccc1-n1ncc(C(=O)c2cc3cc(F)c(N4CC5(CCOCC5)NS4(=O)=O)cc3[nH]2)c1N [Example 5-1-403, [5-amino-1-[4-(2-fluorophenoxy)-2-methylphenyl]pyrazol-4-yl]-[6-(2,2-dioxo-8-oxa-2λ6-thia-1.3-diazaspiro[4.5]decan-3-yl)-5-fluoro-1H-indol-2-yl]methanone] |
| – | – | – | 48 | 2.6 | 1.7 | Cc1cc2cc(C(=O)c3cnn(-c4cnc(Oc5c(F)cccc5F)cc4C)c3N)[nH]c2cc1N1C(=O)NC2(COC2)C1=O [Example 5-1-404, 7-[2-[5-amino-1-[6-(2,6-difluorophenoxy)-4-methylpyridin-3-yl]pyrazole-4-carbonyl]-5-methyl-1H-indol-6-yl]-2-oxa-5,7-diazaspiro[3.4] octane-6,8-dione] |
